From patent publication US4210667A, “Pharmaceutical preparations containing coumarin carboxylic acid derivatives” (Pfizer Inc., priority 1979, dated 1980)

Tests used:
[1] = test system: sorbitol accumulation in the sciatic nerve of streptozotocinized (i.e., diabetic) rats; experiment: Inhibition of sorbitol accumulation in the sciatic nerve of streptozotocinized (diabetic) rats; assay type: in vivo, rat; settings: 25 mg./kg. t.i.d. oral, at 4, 8 and 24 hours after streptozotocin; measured at 27 hours; vs untreated control; Examples 1, 5: average of two tests
Excerpt: (§1) The ability of the active ingredients of the preparations, the derivatives,to control chronic diabetic complications and enzymatic reduction of aldoses may be determined by a number of standard biological or pharmacological tests. These include (1) measuring the ability to inhibit the enzyme activity or isolated aldose reductase; (2) measuring the ability to reduce or inhibit sorbitol accumulation in the sciatic nerve of acutely streptozotocinized (i.e., diabetic) rats; (3) measuring the ability to reverse already-elevated sorbitol levels in the sciatic nerve and lens of chronic streptozocin-induced diabetic rats; (4) measuring the ability to prevent or inhibit galactitol formation in the lens of acutely galactosemic rats; and (5) measuring the ability to delay cataract formation and reduce the severity of lens opacities in chronic galactosemic rats.
Some of the Examples of derivatives prepared above were also tested for their ability to reduce or inhibit sorbitol accumulation in the sciatic nerve of streptozotocinized (i.e., diabetic) rats essentially by the procedure described in U.S. Pat. No. 3,821,383. In the present study, the amount of sorbitol accumulation in the sciatic nerves was measured 27 hours after induction of diabetes. The compounds were administered orally at the dose level indicated at 4, 8 and 24 hours following the administration of streptozotocin. The results obtained in this manner are presented in terms of percent inhibition (%) afforded by the test compound compared to the control where no compound was administered (i.e., the untreated animal where sorbitol levels normally rise from approximately […] tissue to as high as […] tissue in the 27-hour test period).

aldose reductase = molecular target: T1, aldose reductase (Bos taurus, UniProt P16116); experiment: Aldose reductase inhibitory activity (partially purified enzyme from calf lens); assay type: biochemical; settings: 10^-4 M, relative to untreated controls, Examples 2, 4, 5: average of two tests, read-out: Degree of Inhibition at 10^-4 Molar
T1 construct: partially purified aldose reductase enzyme obtained from calf lens; from tissue; host or cells: calf lens
Excerpt: as §1
The derivatives prepared in Examples 1-7 were tested for their ability to reduce or inhibit aldose reductase enzyme activity, following the procedure described in U.S. Pat. No. 3,821,383 and based on the procedure of Hayman et. al., Journal of Biological Chemistry, 240, 877 (1965). The substrate employed was partially purified aldose reductase enzyme obtained from calf lens. The drugs were tested at a level of 10^-4 M to determine the degree of inhibition of enzyme activity relative to untreated controls.

| inhibition at 100 µM (aldose reductase) [%] | Structure (SMILES) | % Inhibition at Dose (sorbitol accumulation in sciatic nerve) [1] [%] |
| --- | --- | --- |
| 94 | Cc1cc2oc(=O)cc(CC(=O)O)c2cc1C [Example 5, 6,7-dimethylcoumarin-4-acetic acid] | 4 |
| 65 | Cc1cc(Cl)cc2c(C(=O)O)cc(=O)oc12 [Example 6, 6-chloro-8-methylcoumarin-4-carboxylic acid] |  |
| 94 | Cc1ccc2c(CC(=O)O)cc(=O)oc2c1 [Example 4, 7-methylcoumarin-4-acetic acid] |  |
| 91 | Cc1cc(C)c2c(CC(=O)O)cc(=O)oc2c1 [Example 3, 5,7-dimethylcoumarin-4-acetic acid] | 11 |
| 91 | O=C(O)Cc1cc(=O)oc2c1cc(Cl)c1ccccc12 [Example 2, 6-chloro-1:2-alpha-naphthapyrone-4-acetic acid] | 9 |
| 81 | Cc1cc2oc(=O)c(C)c(CC(=O)O)c2cc1C [Example 1, 3,6,7-trimethylcoumarin-4-acetic acid] | 21 |
